Data set [1] relates to MRC-5 non-malignant lung fibroblasts. The data set can be described thus: Cytotoxicity CCK-8 assay, MRC-5 (selectivity). Particulars: in vitro, CCK-8.
Source text: (§1) The cytotoxicity of the new α-aminophosphine oxide and phosphonate acetals 4 and 5, β-keto-α-aminophosphonate 6, aziridines 7, 10 and 14, and allylic α-aminophosphine oxides and phosphonates 8, 9, 11, 12, 15 and 16 was investigated in vitro by checking their antiproliferative activities against the human cancer cell line A549 (carcinomic human alveolar basal epithelial cells). […] In order to assess growth inhibition, cell counting kit (CCK-8) assay was employed. […] Likewise, healthy lung cells, such as MRC-5 non-malignant lung fibroblasts were tested to study the selectivity of the cytotoxicity [49].
(§2) All stock solutions of the investigated compounds were prepared by dissolving the powered materials in appropriate amounts of DMSO. The final concentration of DMSO never exceeded 5% (v/v) in reactions. The stock solution was stored at 5 °C until it was used.
(§3) Cells were cultured according to the supplier’s instructions. […] On day 2, compounds were added and samples were incubated for 48 h. […] The absorbance of each well was determined by an Automatic ELISA Reader System (Multiskan FC, Thermo Fisher Scientific, Waltham, MA, USA) at 450 nm wavelength.
The subject of data set [2] is human cancer cell line A549 (carcinomic human alveolar basal epithelial cells). Put plainly: Cytotoxicity (antiproliferative) CCK-8 assay, A549. Particulars: Homo sapiens, A549, 48 h, read-out: Cytotoxicity IC50 Lung A549. A general note: Tetrazolium dyes change colour on reduction, which living cells bring about.
Source text: as §1, §2, §3
The nature of a further data set: in vitro. Particulars: human.
Data set [3] concerns Human colon carcinoma cell line (RKO). The data set can be described thus: Cytotoxicity (antiproliferative) CCK-8 assay, RKO. Particulars: for IC50: Homo sapiens, Colon carcinoma cell, 48 h, read-out: cytotoxicity value against human colon carcinoma cell line (RKO).
Procedure: Human colon carcinoma cell line (RKO) was also used to test the antiproliferative activity of some of our compounds. In order to assess growth inhibition, cell counting kit (CCK-8) assay was employed.
as §2
Cells were cultured according to the supplier’s instructions. Cells were seeded in 96-well plates at a density of 2–4 × 10^3 cells per well and incubated overnight in 0.1 mL of media supplied with 10% Fetal Bovine Serum (Lonza) in 5% CO2 incubator at 37 °C. On day 2, compounds were added and samples were incubated for 48 h. After treatment, 10 μL of cell counting kit-8 was added into each well for additional 2 h incubation at 37 °C. The absorbance of each well was determined by an Automatic ELISA Reader System (Multiskan FC, Thermo Fisher Scientific, Waltham, MA, USA) at 450 nm wavelength.

A value given as a limit tells only on which side of the number the result lay.

What is called melting point is the temperature of the solid-liquid transition.

Source text for in vitro: as §1, §2, §3

Consider `O=P(c1ccccc1)(c1ccccc1)[C@@H]1N[C@]1(Sc1ccccc1)c1ccccc1` (relative stereo) [Compound 14c, Diphenyl [(2S*,3S*)-3-phenyl-3-(phenylthio)aziridin-2-yl]phosphine oxide], for which the “toxicity toward MRC-5 cell line (in words)” value in data set [1] was “good cytotoxicity”. In addition, the results for the IC50 in data set [2] and in data set [3] were 1.1 ± 0.32 µM and 9.7 µM, respectively. The compound also came in with an IC50 at 48 h in the data set “in vitro” of 4.9 ± 0.49 µM.

The compound `C=C(Sc1ccc(C)cc1)C(NS(=O)(=O)c1ccc(C)cc1)P(=O)(OCC)OCC` (stereo not drawn) [Compound 16e, Diethyl [1-((4-methylphenyl)sulfonamido)-2-(p-tolylthio)allyl]phos-phonate] had a melting point of 168 to 170 °C. The IC50 in data set [2] stood at 3.9 ± 0.63 µM. The compound also displayed an IC50 in “in vitro” of more than 50 µM.

`C=C(Sc1ccc(F)cc1)C(NS(=O)(=O)c1ccc(C)cc1)P(=O)(OCC)OCC` (stereo not drawn) [Compound 16d, Diethyl [2-((4-fluorophenyl)thio)-1-((4-methylphenyl)sulfonamido)-allyl]-phosphonate] displayed a melting point of 117 to 119 °C. Further, the IC50 in data set [2] was found to be 3 ± 0.98 µM. Also, the IC50 in “in vitro” is more than 50 µM.

`C=C(Oc1ccc2ccccc2c1)C(NS(=O)(=O)c1ccc(C)cc1)P(=O)(OCC)OCC` (stereo not drawn) [Compound 12b, Diethyl [1-((4-methylphenyl)sulfonamido)-2-(naphthalen-2-yloxy)allyl]-phosphonate]: the melting point was 147 to 149 °C. In addition, in data set [2], the IC50 amounted to 2.1 ± 0.22 µM. In the data set “in vitro”, this compound showed an IC50 of 17.5 ± 1.47 µM.

As for `C[C@@]1(OCC(F)(F)F)N[C@H]1P(=O)(c1ccccc1)c1ccccc1` (relative stereo) [Compound 7, [(2S*,3S*)-3-Methyl-3-(2,2,2-trifluoroethoxy)aziridin-2-yl]diphenylphosphine oxide], the melting point lay in the range of 98 to 100 °C. Also, the IC50 in data set [2] amounted to 3.6 ± 0.7 µM. In the data set “in vitro”, this compound displayed an IC50 at 48 h of more than 50 µM.

`C=C(Sc1ccccc1)C(NS(=O)(=O)c1ccc(C)cc1)P(=O)(OCC)OCC` (stereo not drawn) [Compound 16c, Diethyl [1-((4-methylphenyl)sulfonamido)-2-(phenylthio)allyl]phosphonate] registered a melting point of 99 to 101 °C. In data set [2], the IC50 turned out to be 0.2 ± 0.07 µM. The same compound registered an IC50 in “in vitro” of 24.1 ± 3.55 µM. Also, the IC50 in data set [3] was more than 50 µM. Besides, the “toxicity toward RKO (in words)” value in data set [3] (in vitro, CCK-8) is recorded as “do not exhibited any toxicity”.

These data come from paper PMC7435673, “Synthesis of α-Aminophosphonic Acid Derivatives Through the Addition of O- and S-Nucleophiles to 2H-Azirines and Their Antiproliferative Effect on A549 Human Lung Adenocarcinoma Cells” (Molecules, 2020).
